Read-outs that look alike come from different tables or passages of the source.
What was measured:
[1] = system: normal uninjured rat carotid arteries (medial and adventitial cell populations); assay: In vivo rat carotid artery acellularity after PDT; design: species or system Sprague Dawley rats; details: for Max % rat Artery Accelularity: Table 3, 50 J/cm^2, 3 days post treatment; for Max % Rat Artery Acceluarity: Table 5; for accelularity in rat artery at a four hour treatment point: 4 hrs post administration
Method in brief: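 Metallated photosensitizers light-activated in normal uninjured rat left common carotid via balloon catheter introduced through femoral arteriotomy under isoflurane; excitation 575 nm (Ga, Zn, Al, Sn) or 532 nm (Pt). Arteries harvested 3 days post-treatment, H&E-stained; medial and adventitial cell density assessed by light microscopy.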

[2] = system: normal skin of CD Hairless male rats; assay type: in vivo, rat
Method in brief: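 Liposomal egg yolk phospholipid photosensitizer given as single i.v. tail-vein bolus at 1, 1.5 and 2 μmol/kg; skin spots irradiated with 532 nm laser (150 mW/cm^2, 150J, 1 cm) at 1, 6, 24, 48, 96 hrs post injection. Value is time of last observed skin response spot.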

[3] = system: V79 (Chinese Hamster Lung Fibroblasts) cells; assay: In vitro cytotoxicity assay (light EC50, Alamar blue); assay type: cell-based
Method in brief: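 V79 cells in phenol-free 5% FBS/DMEM exposed 24 h to photosensitizer at final 0.01–5.0 μM, six replicates, then washed and light-treated, with a dark plate as control. Survival by Alamar blue after 24 h dark incubation, read at 570/600 nm.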

[4] = Table 3 porphyrins, 24 h drug incubation, 532 nm, 1.25 J/cm^2, read-out: In Vitro EC50 Light
[5] = Table 4, drug dose 1 μMol, 575 nm (Pt 532 nm)
[6] = Table 4 azaporphyrins, 575 nm (Pt azaporphyrins 532 nm), 1.25 J/cm^2, read-out: In Vitro EC(50)
[7] = Table 5 plant derived gallium porphyrins, light, read-out: In Vitro EC(50)
[8] = Table 3, time of last skin spot observed post injection, 1 μmol, 532 nm laser

CCC1=C(C)c2cc3[n-]c(cc4nc(cc5[n-]c(cc1n2)c(C)c5CC)C(C)=C4CCCCC(=O)[O-])c(CCCCC(=O)[O-])c3C.[Ga+3].[Na+].[Na+].[OH-] [Example 114, Gallium Hydroxy 8,13-diethyl-3,7,12,17-tetramethylporphyrin-2,18-di(pentanoic acid sodium salt)]
Max % rat Artery Accelularity ([1]; drug dose 1 μMol): 20%
Normal skin Response (1 μmol) ([2]; rat, in vivo): 24 h
EC50 [3, 4]: 2300 nM

CCCOC(=O)CCC1=C(C)c2cc3[n-]c(cc4nc(cc5[n-]c(cc1n2)c(CCC(=O)OCCC)c5C)C=C4C)cc3C.[Cl-].[Ga+3] [Example 122, Gallium Chloride Deuteroporphyrin Di-propylester]
Max % rat Artery Accelularity ([1]; drug dose 1 μMol): 95%
Normal skin Response (1 μmol) ([2]; rat, in vivo): 6 h
EC50 [3, 4]: 350 nM

C=CC1=C(C)C2=Cc3c(C=C)c(C)c4[n]3[Al-2]35([Cl])[n]6c(c(C)c(CCC(=O)OC)c6=CC6=[N+]3C(=C4)C(C)=C6CCC(=O)OC)=CC1=[N+]25 [M=Al R1=V R3=Me R4=V R2=CO2Me]
Max % rat Artery Accelularity ([1]; drug dose 1 μMol): 0%
Normal skin Response (1 μmol) ([2]; rat, in vivo): 6 h
EC50 [3, 4]: 3500 nM

C=CC1=C(C)C2=Nc3c(C=C)c(C)c4[n]3[Ga-2]35([Cl])[n]6c(c(C)c(CCC(=O)NC)c6=CC6=[N+]3C(=C4)C(C)=C6CCC(=O)NC)=CC1=[N+]25 [M=Ga R1,R3=Me R2,R4=V R=CONHMe]
Max % Rat Artery Accelularity [1, 5]: 50%
Normal skin Response (1 μmol) ([2]; rat, in vivo): 24 h
EC50 [3, 6]: 500 nM

CCC1=C(C)C2=Cc3c(CC)c(C)c4[n]3[Ga-2]35([Cl])[n]6c(c(C)c(CO)c6=CC6=[N+]3C(=C4)C(C)=C6CCCO)=CC1=[N+]25 [M=Ga R1=CH2OH R2=Et R3=Et R4=CH2OH R5=H]
Max % Rat Artery Acceluarity ([1]; drug dose 1 μMol): 70%
Normal skin Response (1 μmol) ([2]; rat, in vivo): 48 h
EC50 [3, 7]: 410 nM

CCC1=C(C)C2=Cc3c(CC)c(C)c4[n]3[Ga-2]35([Cl])[n]6c(c(C)c(C(=O)NC)c6=CC6=[N+]3C(=C4)C(C)=C6CCC(=O)O)=CC1=[N+]25 [M=Ga R1=CO2H R2=Et R3=Et R4=CONHMe R5=H]
Max % Rat Artery Acceluarity ([1]; drug dose 1 μMol): 50%
Normal skin Response (1 μmol) ([2]; rat, in vivo): 6 h
EC50 [3, 7]: 500 nM

CCC1=C(C)C2=Cc3c(CC)c(C)c4[n]3[Ga-2]35([Cl])[n]6c(c(C)c(C(=O)OC)c6=CC6=[N+]3C(=C4)C(C)=C6CCC(=O)NC)=CC1=[N+]25 [M=Ga R1=CONHMe R2=Et R3=Et R4=CO2Me R5=H]
Max % Rat Artery Acceluarity ([1]; drug dose 1 μMol): 65%
Normal skin Response (1 μmol) ([2]; rat, in vivo): 6 h
EC50 [3, 7]: 420 nM

CCC1=C(C)C2=Cc3c(CC)c(C)c4[n]3[Ga-2]35([Cl])[n]6c(c(C)c(CCCC(=O)OCCF)c6=CC6=[N+]3C(=C4)C(C)=C6CCCC(=O)OCCF)=CC1=[N+]25 [M=Ga R1=Et R3=Me R4=Et R2=CH2CO2CH2CH2F]
Max % rat Artery Accelularity ([1]; drug dose 1 μMol): 75%
Normal skin Response (1 μmol) ([2]; rat, in vivo): 24 h
EC50 [3, 4]: 400 nM

CCOC(=O)CCCC1=C(C)C2=Cc3c(C)c(CC)c4[n]3[Ga-2]35([Cl])[n]6c(c(C)c(CCCC(=O)OCC)c6=CC1=[N+]23)=CC1=[N+]5C(=C4)C(C)=C1CC [M=Ga R1=Et R3=Me R4=Et R2=CH2CO2Et]
Max % rat Artery Accelularity ([1]; drug dose 1 μMol): 80%
Normal skin Response (1 μmol) ([2]; rat, in vivo): 24 h
EC50 [3, 4]: 400 nM

CCC1=C(C)C2=Cc3c(CC)c(C)c4[n]3[Ga-2]35([Cl])[n]6c(c(C)c(CCC(=O)O)c6=CC6=[N+]3C(=C4)C(C)=C6CCC(=O)O)=CC1=[N+]25 [M=Ga R1=Et R3=Me R4=Et R2=CO2H]
accelularity in rat artery at a four hour treatment point [1]: 15%
Max % rat Artery Accelularity ([1]; drug dose 1 μMol): 15%
Normal skin Response (1 μmol) ([2]; rat, in vivo): 24 h
EC50 [3, 4]: 2000 nM

CCCCCCNC(=O)CCC1=C(C)C2=Cc3c(C)c(CC)c4[n]3[Ga-2]35([Cl])[n]6c(c(C)c(CCC(=O)NCCCCCC)c6=CC1=[N+]23)=CC1=[N+]5C(=C4)C(C)=C1CC [M=Ga R1=Et R3=Me R4=Et R2=CONH(Hexyl)]
Max % rat Artery Accelularity ([1]; drug dose 1 μMol): 60%
Normal skin Response (1 μmol) [2, 8]: 96 h
normal skin responses, time post drug injection ([2]; rats, drug dose 1 μmol/Kg): 96 h
EC50 [3, 4]: 400 nM

CCC1=C(CC)c2nc1cc1[nH]c(cc3nc(cc4[nH]c(n2)c(CC)c4CC)C(C)=C3CCC(=O)O)c(CCC(=O)O)c1C [M=H2 R1,R3=Et R2,R4=Et R=CO2H]
accelularity in rat artery at a four hour treatment point [1]: 0%
Max % Rat Artery Accelularity [1, 5]: 0%
Normal skin Response (1 μmol) in hrs ([2]; rat, in vivo): None
EC50 [3, 6]: 450 nM

C=CC1=C(C)C2=Cc3c(C=C)c(C)c4[n]3[Sn-2]35([Cl])([Cl])[n]6c(c(C)c(CCC(=O)OC)c6=CC6=[N+]3C(=C4)C(C)=C6CCC(=O)OC)=CC1=[N+]25 [M=Sn R1=V R3=Me R4=V R2=CO2Me]
Max % rat Artery Accelularity ([1]; drug dose 1 μMol): 10%
Normal skin Response (1 μmol) [2, 8]: 24 h
EC50 [3, 4]: 1400 nM

Aluminum Chloride 7,8,12,13-tetraethyl-12,17-dimethyl-10-azaporphyrin-2,18-di(propionic acid methyl ester) [Example 84]
Max % Rat Artery Accelularity [1, 5]: 50%
Normal skin Response (1 μmol) ([2]; rat, in vivo): 48 h
EC50 [3, 6]: 40 nM

Aluminum Chloride Mesoporphyrin Dimethyl Ester [Example 30]
Max % rat Artery Accelularity ([1]; drug dose 1 μMol): 0%
Normal skin Response (1 μmol) ([2]; rat, in vivo): 24 h
EC50 [3, 4]: 3000 nM

Gallium Chloride 3,7,14,17-tetramethyl-5,10-diazaporphyrin-2,8,12,18-tetra(propionic acid methyl ester) [Example 116]
Max % Rat Artery Accelularity ([1]; drug dose 1 (μMol), i.v., 50 J/cm^2, 160 mW/cm^2, Ga excited at 575 nm, sacrifice three days post treatment): 55%
Normnal skin Response (1 μmol) ([2]; rat, in vivo): 4
EC50 ([3]; light EC50, metallodiazaporphyrins, read-out: In Vitro EC(50)): 350 nM

Gallium Chloride 8,13-diethyl-3,7,12,17-tetramethylporphyrin-2,18-di(3′-hydroxypropyl) [Example 7]
Max % rat Artery Accelularity ([1]; drug dose 1 μMol): 95%
reduction of smooth muscle cells in the media and myofibroblasts in the adventitial layers of rat arteries ([1]; text b238): efficient at dramatically reducing the number of smooth muscle cells
Normal skin Response (1 μmol) ([2]; rat, in vivo): 48 h
EC50 [3, 4]: 550 nM

Gallium Chloride 8,13-diethyl-3,7,12,17-tetramethylporphyrin-2,18-di(3′-methoxypropyl) [Example 10]
Max % rat Artery Accelularity ([1]; drug dose 1 μMol): 75%
Normal skin Response (1 μmol) ([2]; rat, in vivo): 48 h
EC50 [3, 4]: 400 nM

Gallium Chloride Chloroporphyrin e6 Trimethyl Ester [Example 13]
Max % Rat Artery Acceluarity ([1]; drug dose 1 μMol): 70%
Normal skin Response (1 μmol) ([2]; rat, in vivo): 6 h
EC50 [3, 7]: 400 nM

Gallium Chloride Mesoporphyrin III Dimethyl Ester [Example 115]
Max % rat Artery Accelularity ([1]; drug dose 1 μMol): 10%
Normal skin Response (1 μmol) ([2]; rat, in vivo): 6 h
EC50 [3, 4]: 300 nM

Gallium Chloride Rhodoporphyrin Di-methylester [Example 123]
Max % Rat Artery Acceluarity ([1]; drug dose 1 μMol): 60%
Normal skin Response (1 μmol) ([2]; rat, in vivo): 6 h
EC50 [3, 7]: 400 nM

Tin (IV) Dichloride Mesoporphyrin Dimethyl Ester [Example 32]
Max % rat Artery Accelularity ([1]; drug dose 1 μMol): 20%
Normal skin Response (1 μmol) ([2]; rat, in vivo): 24 h
EC50 [3, 4]: 1400 nM

Source: US6827926B2, “Metallotetrapyrrolic photosensitizing agents for use in photodynamic therapy” (Miravant Pharmaceuticals, Inc., priority 2001, dated 2004)
